According to US20120083522A1, “MODULATION OF INFLAMMATORY RESPONSES BY FACTOR XI” (Isis Pharmaceuitcals, inc., priority 2009, published 2012):
In the oligonucleotide strings, read from the 5' end, every base follows the letter of its sugar. An asterisk marks phosphorothioate; unmarked linkages are phosphodiester. Other units and linkages are bracketed, terminal groups are in braces. A string of capitals states the bases alone. e = 2'-O-(2-methoxyethyl) (MOE); [5mC] = 5-methylcytosine; d = 2'-deoxy (DNA)

Columns and labels:
Assay type in all cases: in vivo
[1] = system: IL-1β, IL-6, IFN-γ, TNF-α, IL-8, MIP-1α, MCP-1, MIP-10, RANTES; test: Cynomolgus monkeys: cytokine and chemokine assays (Example 30)
Method: (§1) Groups, each consisting of two male and two female monkeys, were injected subcutaneously with 25 mg/kg of ISIS 416850, ISIS 449709, ISIS 445522, ISIS 449710, ISIS 449707, ISIS 449711, ISIS 449708, 416858 and ISIS 445531. Antisense oligonucleotide was administered to the monkeys at 25 mg/kg three times per week for week 1 and 25 mg/kg twice per week for weeks 2 to 8. A control group, consisting of two male and two female monkeys was injected subcutaneously with PBS according to the same dosing regimen. Body weights were taken 14 days and 7 days before the start of treatment and were then measured weekly throughout the treatment period. Blood samples were collected 14 days and 5 days before the start of treatment and subsequently several times during the dosing regimen for measurement of various hematologic factors. On day 55, the monkeys were euthanized by exsanguination while under deep anesthesia, and organs harvested for further analysis.
Blood samples obtained from all monkey groups were sent to Pierce Biotechnology (Woburn, Mass.) for measurements of chemokine and cytokine levels. Levels of IL-1β, IL-6, IFN-γ, and TNF-α were measured using the respective primate antibodies and levels of IL-8, MIP-1α, MCP-1, MIP-10 and RANTES were measured using the respective cross-reacting human antibodies. Measurements were taken 14 days before the start of treatment and on day 55, when the monkeys were euthanized.

[2] = Cynomolgus monkeys: hematology assays (Example 29)
Method: (§2) Groups, each consisting of two male and three female monkeys, were injected subcutaneously with ISIS 416838, ISIS 416850, ISIS 416858, ISIS 416864, or ISIS 417002 in escalating doses. Antisense oligonucleotide was administered to the monkeys at 5 mg/kg three times per a week for week 1; 5 mg/kg twice per week for weeks 2 and 3; 10 mg/kg three times per week for week 4; 10 mg/kg twice per week for weeks 5 and 6; 25 mg/kg three times per week for week 7; and 25 mg/kg twice per week for weeks 8, 9, 10, 11, and 12. One control group, consisting of two male and three female monkeys, was injected subcutaneously with PBS according to the same dosing regimen. An additional experimental group, consisting of two male and three female monkeys, was injected subcutaneously with ISIS 416850 in a chronic, lower dose regimen. Antisense oligonucleotide was administered to the monkeys at 5 mg/kg three times per week for week 1; 5 mg/kg twice per week for week 2 and 3; 10 mg/kg three times per week for week 4; and 10 mg/kg twice per week for weeks 5 to 12. Body weights were measured weekly. Blood samples were collected 14 days and 5 days before the start of treatment and subsequently once per week for Factor XI protein activity analysis in plasma and measurement of various hematologic factors. On day 85, the monkeys were euthanized by exsanguination while under deep anesthesia, and organs harvested for further analysis.
The ISIS oligonucleotide, ISIS 416850, given with the chronic dose regimen is distinguished from the other oligonucleotides with an asterisk (*).

Factor XI protein [3] = test: Cynomolgus monkeys: plasma Factor XI protein ELISA (Example 30); conditions: cynomolgus monkeys, Example 30
Method: as §1
(§3) Plasma samples from all monkey groups taken on different days were analyzed by a sandwich-style ELISA assay (Affinity Biologicals Inc.) using an affinity-purified polyclonal anti-Factor XI antibody as the capture antibody and a peroxidase-conjugated polyclonal anti-Factor XI antibody as the detecting antibody. Monkey plasma was diluted 1:50 for the assay. Peroxidase activity was expressed by incubation with the substrate o-phenylenediamine. The color produced was quantified using a microplate reader at 490 nm and was considered to be proportional to the concentration of Factor XI in the samples.
The results are presented in Table 148, expressed as percentage reduction relative to that of the PBS control.

Factor XI protein [4] = test: Cynomolgus monkeys: plasma Factor XI protein ELISA (Example 29); conditions: for Inhibition of Factor XI protein relative to the PBS control: escalating doses 5, 10, 25 mg/kg s.c.
Method: as §2, §3
The results are presented in Table 122, expressed as percentage reduction relative to that of the PBS control.

[5] = Cynomolgus monkeys: body and organ weights (Example 29); conditions: for Body weight: escalating doses 5, 10, 25 mg/kg s.c.
Method: as §2
Body weights were taken once weekly throughout the dosing regimen. […] Organ weights were taken after the animals were euthanized and livers, kidneys and spleens were harvested and weighed. […] The ISIS oligonucleotide, ISIS 416850, given with the chronic dose regimen is distinguished from the other oligonucleotides with an asterisk (*).

Factor XI mRNA = test: Cynomolgus monkeys, 25 mg/kg: liver Factor XI RNA analysis (Example 30); conditions: cynomolgus monkeys, day 55, in comparison to the PBS control
Method: as §1
On day 55, RNA was extracted from liver tissue for real-time PCR analysis of Factor XI using primer probe set LTS00301. Results are presented as percent inhibition of Factor XI, relative to PBS control.

[6] = Tolerability in CD1 mice: body and organ weight (Example 25); conditions: 50 mg/kg s.c. twice per week for 6 weeks; for Kidney weight as percentage of body weight / Liver weight as percentage of body weight / Spleen weight as percentage of body weight: end of study
[7] = day −14 (before start of treatment)

ISIS 416858: gapmer of Table 8 (antisense eA*e[5mC]*eG*eG*e[5mC]*dA*dT*dT*dG*dG*dT*dG*d[5mC]*dA*d[5mC]*eA*eG*eT*eT*eT)
IL-1β level ([1]; 25 mg/kg s.c., day 55): 28 pg/mL | MIP-1β level ([1]; 25 mg/kg s.c., day 55): 47 pg/mL | IL-1β level [1, 7]: 103 pg/mL | MIP-1β level [1, 7]: 37 pg/mL | platelet count ([2]; day 8): 391000 µL⁻¹ | platelet count ([2]; day 15): 400000 µL⁻¹ | platelet count ([2]; day 22): 316000 µL⁻¹ | platelet count ([2]; day 29): 336000 µL⁻¹ | platelet count ([2]; day 36): 371000 µL⁻¹ | platelet count ([2]; day 43): 342000 µL⁻¹ | platelet count ([2]; day 50): 331000 µL⁻¹ | platelet count ([2]; day 57): 333000 µL⁻¹ | platelet count ([2]; day 64): 295000 µL⁻¹ | platelet count ([2]; day 71): 286000 µL⁻¹ | platelet count ([2]; day 78): 262000 µL⁻¹ | platelet count ([2]; day 85): 267000 µL⁻¹ | platelet count ([2]; day −5): 463000 µL⁻¹ | platelet count ([2]; day −14): 419000 µL⁻¹ | Factor XI protein levels (in words) (Factor XI protein [3]): time-dependent decrease in protein levels | Factor XI protein levels (in words) (Factor XI protein [4]; Example 29): time-dependent decrease in protein levels | Inhibition of Factor XI protein relative to the PBS control (Factor XI protein [4]; day 8): 6% | Inhibition of Factor XI protein relative to the PBS control (Factor XI protein [4]; day 15): 16% | Inhibition of Factor XI protein relative to the PBS control (Factor XI protein [4]; day 22): 23% | Inhibition of Factor XI protein relative to the PBS control (Factor XI protein [4]; day 29): 28% | Inhibition of Factor XI protein relative to the PBS control (Factor XI protein [4]; day 36): 35% | Inhibition of Factor XI protein relative to the PBS control (Factor XI protein [4]; day 43): 39% | Inhibition of Factor XI protein relative to the PBS control (Factor XI protein [4]; day 50): 49% | Inhibition of Factor XI protein relative to the PBS control (Factor XI protein [4]; day 57): 60% | Inhibition of Factor XI protein relative to the PBS control (Factor XI protein [4]; day 64): 68% | Inhibition of Factor XI protein relative to the PBS control (Factor XI protein [4]; day 71): 71% | Inhibition of Factor XI protein relative to the PBS control (Factor XI protein [4]; day 78): 73% | Inhibition of Factor XI protein relative to the PBS control (Factor XI protein [4]; day 85): 78% | Inhibition of Factor XI protein relative to the PBS control (Factor XI protein [4]; day −5 (before treatment)): 0% | Inhibition of Factor XI protein relative to the PBS control (Factor XI protein [4]; day −14 (before treatment)): 0% | spleen weight (in words) ([5]; Example 29): increase in spleen weight | Kidney weight ([5]; after euthanasia): 13 g | Liver weight ([5]; after euthanasia): 60 g | Spleen weight ([5]; after euthanasia): 12 g | Body weight ([5]; day 1): 2912 g | Body weight ([5]; day 8): 2740 g | Body weight ([5]; day 15): 2760 g | Body weight ([5]; day 22): 2800 g | Body weight ([5]; day 29): 2763 g | Body weight ([5]; day 36): 2584 g | Body weight ([5]; day 43): 2607 g | Body weight ([5]; day 50): 2646 g | Body weight ([5]; day 57): 2617 g | Body weight ([5]; day 64): 2618 g | Body weight ([5]; day 71): 2865 g | Body weight ([5]; day 78): 2713 g | Factor XI mRNA in liver (in words) (Factor XI mRNA): significant reduction of Factor XI mRNA

ISIS 445522: microwalk gapmer of Table 51 (antisense eG*e[5mC]*eA*e[5mC]*eA*dG*dT*dT*dT*d[5mC]*dT*dG*dG*e[5mC]*eA*eG*eG*e[5mC])
IL-1β level ([1]; 25 mg/kg s.c., day 55): 341 pg/mL | MIP-1β level ([1]; 25 mg/kg s.c., day 55): 63 pg/mL | IL-1β level [1, 7]: 188 pg/mL | MIP-1β level [1, 7]: 27 pg/mL | Body weight (increase over PBS control weight before start of treatment) [6]: 11 g | Kidney weight as percentage of body weight [6]: 1.7% | Liver weight as percentage of body weight [6]: 6% | Spleen weight as percentage of body weight [6]: 0.4% | Factor XI protein levels (in words) (Factor XI protein [3]): time-dependent decrease in protein levels | Factor XI mRNA in liver (in words) (Factor XI mRNA): significant reduction of Factor XI mRNA

ISIS 445531: microwalk gapmer of Table 51 (antisense eG*eG*e[5mC]*eA*eT*dT*dG*dG*dT*dG*d[5mC]*dA*d[5mC]*eA*eG*eT*eT*eT)
IL-1β level ([1]; 25 mg/kg s.c., day 55): 155 pg/mL | MIP-1β level ([1]; 25 mg/kg s.c., day 55): 84 pg/mL | IL-1β level [1, 7]: 101 pg/mL | MIP-1β level [1, 7]: 22 pg/mL | Body weight (increase over PBS control weight before start of treatment) [6]: 10 g | Kidney weight as percentage of body weight [6]: 1.5% | Liver weight as percentage of body weight [6]: 6% | Spleen weight as percentage of body weight [6]: 0.5% | Factor XI mRNA in liver (in words) (Factor XI mRNA): significant reduction of Factor XI mRNA
